In US11795439B2, “Methods for reprogramming cells and uses thereof” (GENESIS TECHNOLOGIES LIMITED, priority 2009, dated 2023):

Tests used:
Format in all cases: cell-based, human
[1] = test system: fibroblast cells within CDM; assay: Trans-differentiation of cells within CDM by cytochalasin B, VPA, 5-Azacytidine, immunohistochemistry; conditions: Day 14 CDM; cytochalasin B and NbActive medium only
Description: Fibroblast cells were cultured in DMEM medium in the presence of 10% FCS as described in Example I, followed by seeding onto 12-well plates pre-coated with laminin ([…]) at a concentration of 2×10^6 cells/ml in defined CDM Medium consisting of a 3:1 ratio of Dulbecco's modified Eagle medium (DMEM, high glucose (4.5 g/L) with L-glutamine and sodium pyruvate) and Ham's F-12 medium supplemented with the following components: EGF (4.2×10^−10M), bFGF (2.8×10^−10M), ITS (8.6×10^−5M), dexamethasone (1.0×10^−7M), L-ascorbic acid phosphate magnesium salt n-hydrate (3.2×10^−4M), L-3,3′,5-triiodothyronine (2.0×10^−10M), ethanolamine (10^−4M), GlutaMAX™ (4×10^−3M), glutathione (3.3×10^−6M), and 1% penicillin/streptomycin/amphotericin B. By culturing the fibroblast cells at hyperconfluent density in this completely chemically defined medium causes them to enter a high synthetic phase with a slow-down in proliferation, leading to the production of a living tissue equivalent (LTE) consisting of multiple layers of fibroblasts within de novo 3D extracellular matrix (CDM) that is completely synthesized by the fibroblasts themselves.
Day 14 CDM samples were treated with cytochalsin B (10 μg/ml, Calbiochem), with the concentration of cytochalsin B reduced from 10 μg/ml to 0 μg/ml (none) over 5 days while at the same time switching the medium from CDM Medium to NbActive medium. […]

fibroblast cells = assay: Immunohistochemistry (Cellomics) % Sox2 and nestin positive cells with or without cytochalasin B (Table 4); conditions: disrupting the cell cytoskeleton
Description: Cells were fixed with a 4% formaldehyde/PBS solution for 10 min at room temperature and subsequently permeabilized for 5 min with 0.1% Triton X-100™ in 4% formaldehyde/PBS. After two brief washes with PBS, unspecific antibody binding was blocked by a 30 min incubation with 5% normal goat serum in PBS. Then primary antibodies were added in 5% normal goat serum/PBS as follows: Mouse anti-Nestin (1:100, BD) as an […] present in neural stem cells and mouse anti-NCAM (1:100, Neuromics) as neuronal adhesion molecule. After a 2 h incubation the cells were washed 4 times for 5 min each with 0.1% Tween™/PBS. Appropriate fluorescence-tagged secondary antibody was used for visualization; Goat anti-mouse 546 (1:200, invitrogen) prepared in 5% normal goat serum/PBS was used. […] Fluorescence images were taken with a Cellomics™ ArrayScan HCS Reader microscopy system. To determine an estimate of the percentage of cells adopting neuronal or glial phenotypes, random fields were selected and for each field the total number of cells (as determined by counting Hoechst stained nuclei) and the total number of cells positive for neuronal or glial markers were determined.
Various combinations of neurogenic regulators and cytokines for epigenetic modifications were tested to ascertain their effect on reprogramming efficiency. […] Cells were then analyzed for neural stem cell markers. […]

HFFs = assay: Sox2 immunohistochemistry with or without Noggin; conditions: inhibiting the BMP signaling pathway
Description: This study was designed to evaluate the role of Noggin in the process of de-differentiation of HFFs towards NSLCs. HFFs were cultured and treated with cytochalasin B as described in Example III. After two days of treatment, cells were transfected by Nucleofection as described in Example II with the constructed vector Msi1/Ngn2. Briefly, after preparing the cells, they were mixed with 2 μg of total DNA (Msi1/Ngn2) and were co-transfect with MBD2 ([…]), by the Amaxa's Nucleofector™ according to the manufacturer's protocol. The samples were then transferred into a Laminin (10 μg/ml, Sigma) coated culture plate and cultured in the presence of Neural Proliferation Medium (NeuroCult™ proliferation Kit, StemCell Technologies) with recombinant hFGF (20 ng/ml, Peprotech), recombinant hEGF (20 ng/ml, Peprotech), and with or without the presence of Noggin (20 ng/ml, Peprotech). Samples were collected at different time points (1, 3, 4, 6, and 8 days) to analyze neuronal gene expression by RT-PCR and protein expression levels by immunohistochemistry.
Fluorescent imunohistochemical staining was performed on samples after 4 days of transfection as previously described in Example I. Transfected cells were stained and analyzed for expression of Sox2, the percentage of Sox2 was 33.3±1.00% in the presence of Noggin compared to 27.5±0.50% without the presence of noggin at day 4. […]

C=C1[C@@H](C)[C@H]2[C@H](Cc3ccccc3)NC(=O)[C@]23OC(=O)/C=C/[C@H](O)CCC[C@@H](C)C/C=C/[C@H]3[C@@H]1O [Cytochalasin B]
βIII-tubulin positive cells [1]: failed to detect | effect on reprogramming (fibroblast cells): significantly enhanced reprogramming, but had no reprogramming effect on its own

B1: Noggin: Noggin (20 ng/ml, Peprotech), inhibits the BMP signaling pathway (protein, UniProt Q13253 28-232, looked up)
Noggin: QHYLHIRPAPSDNLPLVDLIEHPDPIFDPKEKDLNETLLRSLLGGHYDPGFMATSPPEDRPGGGGGAAGGAEDLAELDQLLRQRPSGAMPSEIKGLEFSEGLAQGKKQRLSKKLRRKLQMWLWSQTFCPVLYAWNDLGSRFWPRYVKVGSCFSKRSCSVPEGMVCKPSKSVHLTVLRWRCQRRGGQRCGWIPIQYPIISECKCSC
effect on reprogramming (HFFs): enhanced reprogramming, but had no reprogramming effect on its own
